Data on 22 compounds can be found in patent US10251838B2, “Stereospecific lipids for locoregional therapy with long-term circulating stimuli-sensitive nanocarrier systems” (THERMOSOME GmbH, priority 2013, dated 2019).

Data set [1] in a line: Phase transition temperatures (TM) of phospholipids. Format: physicochemical. To be noted: for TM (phase transition temperature): phosphatidylcholine/phosphatidyldiglycerol/phosphatidyltriglycerol/phosphatidyltetraglycerol with the given fatty acid pattern; for main (phase) transition temperature: pure lipid. As for the experimental part: By selecting a phosphatidylcholine having a suitable main transition temperature, the stimuli-sensitive nanocarrier system, in particular the thermosensitive liposome, can be customised. Table 1 gives main transition temperatures (TM) of phosphatidylcholines whose main transition temperatures are in the range of from 0 to 80° C.
The fatty acid chains and their distribution over positions 1 and 2 of the glycerol molecule dominate the physical properties of the phospholipids. The phase transition temperature is independent of whether the phospholipid is the phosphatidylcholine, the phosphatidyldiglycerol, the phosphatidyltriglycerol or the phosphatidyltetraglycerol.

For data set [2] the following is noted: tissue depth of 2000-3000 μm; cited from earlier work.
The nature of data set [3]: Stability and circulation of liposomes in serum / bloodstream (animal experiments). The class given is in vivo. The settings on record: lipid alone in liposomes. As for the experimental part:
By using phosphatidyloligoglycerols, it has been possible to prepare thermosensitive liposomes having a prolonged blood circulation time (WO 2002/064116 and WO 2004/026282). […] The majority of the liposomes remain in the blood circulation over a period of 2 hours and are therefore available for heat-controlled release of the active ingredient. Owing to the rapid release-kinetics of these liposomes with heat-induced release of the active ingredient within a few seconds, preferably <15 seconds, more preferably <10 seconds, a previously enclosed active ingredient can be released immediately by targeted heating of the liposomes to temperatures >39° C., preferably 40-42° C.
The main transition temperature for (1,2-dipalmitoyl)-phosphatidylcholine is approximately 41° C. The purely physical requirements for clinical use in liposomes can accordingly be fulfilled by this phosphatidylcholine. However, the serum stability in the bloodstream of humans and animals that is required for clinical applications is lacking. (1,2-Dipalmitoyl)phosphatidylcholine alone is therefore not sufficient to achieve the therapeutic aims. […]
Enclosed active ingredients are only released when the temperature is increased locally to about 42° C. […]

Regarding `CCCCCCCC/C=C\CCCCCCCC(=O)O[C@H](COC(=O)CCCCCCCCCCCCCCCCC)COP(=O)([O-])OCC[N+](C)(C)C` [1-stearoyl-2-oleoyl-, 1-stearoyl-2-oleoyl-3-phosphocholine], the “TM (phase transition temperature)” value in data set [1] came out at 7 °C.
On to `CCCCCCCCCCCCCCCCCC(=O)OC(COC(=O)CCCCCCCCCCCCCCC)COP(=O)([O-])OCC[N+](C)(C)C` (stereo not drawn) [1-palmitoyl-2-stearoyl-, 1-palmitoyl-2-stearoylglycero-3-phosphocholine], for which, in data set [1], the “TM (phase transition temperature)” value worked out at 52 °C.
Regarding `CCCCCCCCCCCCCCCCCC(=O)OCC(COC(=O)CCCCCCCCCCCCCCCCC)OP(=O)([O-])OCC[N+](C)(C)C` [1,3-distearoyl-, 1,3-distearoylglycero-2-phosphocholine], the “TM (phase transition temperature)” value in data set [1] was determined as 53 °C.
For the compound `CCCCCCCCCCCCCCCCCC(=O)OCC(COP(=O)([O-])OCC[N+](C)(C)C)OC(=O)CCCCCCCCCCCCC` (stereo not drawn) [1-stearoyl-2-myristoyl-, 1-stearoyl-2-myristoylglycero-3-phosphocholine], the “TM (phase transition temperature)” value in data set [1] turned out to be 33 °C.
Same read-out and setting: under `CCCCCCCCCCCCCCCC(=O)OCC(COP(=O)([O-])OCC[N+](C)(C)C)OC(=O)CCCCCCCCCCC` (stereo not drawn) [1-palmitoyl-2-lauroyl-, 1-palmitoyl-2-lauroylglycero-3-phosphocholine] stands 11 °C.
For `CCCCCCCCCCCCCCCCCCCCCCCC(=O)OCC(COP(=O)([O-])OCC[N+](C)(C)C)OC(=O)CCCCCCCCCCCCCCCCCCCCCCC` (stereo not drawn) [1,2-dilignoceroyl-, 1,2-dilignoceroylglycero-3-phosphocholine], the “TM (phase transition temperature)” value in data set [1] is 80 °C.
The same measure, in the same setting: for `CCCCCCCCCCCCCCCC(=O)OCC(COP(=O)([O-])OCC[N+](C)(C)C)OC(=O)CCCCCCCCCCCCC` (stereo not drawn) [1-palmitoyl-2-myristoyl-, 1-palmitoyl-2-myristoylglycero-3-phosphocholine] the value was 27 °C.
Turning to `CCCCCCCCCCCCCC(=O)OCC(COC(=O)CCCCCCCCCCCCC)OP(=O)([O-])OCC[N+](C)(C)C` [1,3-dimyristoyl-, 1,3-dimyristoylglycero-2-phosphocholine], the “TM (phase transition temperature)” value in data set [1] came to 19 °C.
Still for that read-out and setting: for `CCCCCCCCCCCCCCCC(=O)OCC(COC(=O)CCCCCCCCCCCCCCC)OP(=O)([O-])OCC[N+](C)(C)C` [1,3-dipalmitoyl-, 1,3-palmitoylglycero-2-phosphocholine] the value was 39 °C.
Still for that read-out and setting: under `CCCCCCCCCCCCCCCCCC(=O)OC(COC(=O)CCCCCCCCCCCCC)COP(=O)([O-])OCC[N+](C)(C)C` (stereo not drawn) [1-myristoyl-2-stearoyl-, 1-myristoyl-2-stearoylglycero-3-phosphocholine] stands 42 °C; under `CCCCCCCCCCCCCCCCCCCCCC(=O)OCC(COP(=O)([O-])OCC[N+](C)(C)C)OC(=O)CCCCCCCCCCCCCCCCCCCCC` (stereo not drawn) [1,2-dibehenoyl-, 1,2-dibehenoylglycero-3-phosphocholine], 75 °C; under `CCCCCCCCCCCCCCCCCCCC(=O)OC[C@H](COP(=O)([O-])OCC[N+](C)(C)C)OC(=O)CCCCCCCCCCCCCCCCCCC` [1,2-diarachinoyl-, 1,2-diarachinoylglycero-3-phosphocholine], 66 °C.
For `CCCCCCCCCCCCCCCC(=O)OC(COC(=O)CCCCCCCCCCCCC)COP(=O)([O-])OCC[N+](C)(C)C` (stereo not drawn) [1-myristoyl-2-palmitoyl-, 1-myristoyl-2-palmitoylglycero-3-phosphocholine], the “TM (phase transition temperature)” value in data set [1] amounted to 37 °C.
Take `CCCCCCCCCCCCCCCCCC(=O)OCC(COC(=O)CCCCCCCCCCCCC)OP(=O)([O-])OCC[N+](C)(C)C` (stereo not drawn) [1-stearoyl-3-myristoyl-, 1-stearoyl-3-myristoylglycero-2-phosphocholine]: the “TM (phase transition temperature)” value in data set [1] came out at 46 °C.
As to `CCCCCCCC/C=C\CCCCCCCC(=O)OC(COC(=O)CCCCCCCCCCCCCCCCCCCCC)COP(=O)([O-])OCC[N+](C)(C)C` (stereo not drawn) [1-behenoyl-2-oleoyl-, 1-behenoyl-2-oleoylglycero-3-phosphocholine], the “TM (phase transition temperature)” value in data set [1] is 14 °C.
Take `CCCCCCCCCCCCCCCCCC(=O)OCC(COP(=O)([O-])OCC[N+](C)(C)C)OC(=O)CCCCCCCCCCCCCCCCC` (stereo not drawn) [1,2-distearoyl-, 1,2-distearoylglycero-3-phosphocholine]: in data set [1], the “TM (phase transition temperature)” value was determined as 56 °C and the “main (phase) transition temperature” value was 56 °C.
`CCCCCCCCCCCCCCCCCC(=O)OCC(COP(=O)([O-])OCC[N+](C)(C)C)OC(=O)CCCCCCCCCCCCCCC` (stereo not drawn) [1-stearoyl-2-palmitoyl-, 1-stearoyl-2-palmitoylglycero-3-phosphocholine]: the “TM (phase transition temperature)” value in data set [1] worked out at 48 °C.
The same measure, in the same setting: under `CCCCCCCC/C=C\CCCCCCCC(=O)OC(COC(=O)CCCCCCCCCCCCCCC)COP(=O)([O-])OCC[N+](C)(C)C` (stereo not drawn) [1-palmitoyl-2-oleoyl-, 1-palmitoyl-2-oleoylglycero-3-phosphocholine] stands 5 °C.
As for `CO[C@@]12[C@H](COC(N)=O)C3=C(C(=O)C(C)=C(N)C3=O)N1C[C@@H]1N[C@@H]12` [mitomycin C], the “dogs in which no further mitomycin C was detectable” value in data set [2] is 18/24.
Regarding `CCCCCCCCCCCCCC(=O)OCC(COP(=O)([O-])OCC[N+](C)(C)C)OC(=O)CCCCCCCCCCCCC` (stereo not drawn) [1,2-dimyristoyl-, 1,2-dimyristoylglycero-3-phosphocholine], in data set [1], the “TM (phase transition temperature)” value was determined as 23 °C and the “main (phase) transition temperature” value came out at 23 °C.
`CCCCCCCCCCCCCCCC(=O)OCC(COP(=O)([O-])OCC[N+](C)(C)C)OC(=O)CCCCCCCCCCCCCCC` (stereo not drawn) [1,2-dipalmitoyl-, 1,2-dipalmitoylglycero-3-phosphocholine]: the “serum stability in the bloodstream of humans and animals” value in data set [3] is reported as “lacking”. The “TM (phase transition temperature)” value in data set [1] turned out to be 41 °C. For the same compound, the “main (phase) transition temperature” value in data set [1] (listed as (1,2-dipalmitoyl)-phosphatidylcholine) is “approximately 41 °C”; in data set [1] (listed as dipalmitoyl-phosphatidylcholine), 41 °C.
With `CCCCCCCCCCCCCCCCCC(=O)OCC(COP(=O)([O-])OCC[N+](C)(C)C)OC(=O)CCCCCCCCCCC` (stereo not drawn) [1-stearoyl-2-lauroyl-, 1-stearoyl-2-lauroylglycero-3-phosphocholine], in data set [1], the “TM (phase transition temperature)” value amounted to 17 °C.
